Test results: patent US20250034182A1, “PHOSPHOLIPID COMPOUNDS AND METHODS OF MAKING AND USING THE SAME” (priority 2021, published 2025)

Legend:
Assay type in all cases: cell-based
[1] = in vitro; conditions: human
Experimental: Huh7 hepatoblastoma cells were seeded onto 96-well plates and incubated at 37° C. with 5% CO2 overnight. The plates were seeded at a cell concentration that will yield >70% confluent monolayers in each well after overnight incubation. Eight 3-fold serial dilutions of compounds were diluted in test media (MEM supplemented with 2% FBS and 50 μg/mL gentamicin). The highest test compound concentration was 50 μg/mL. 100 μL of each concentration was added to 5 test wells on the 96-well plate. Of these 5 test wells, 3 wells of each dilution were infected with dengue virus type 2, diluted in test media (approximately 2000 CCID50 per well for an MOI of 0.07). Test medium (100 μL) with no virus was added to 2 wells to represent the uninfected cytotoxicity controls. Six additional infected wells received 100 μL media alone as untreated virus controls. Further, 100 μL of media alone was added to 6 uninfected wells to serve as uninfected, untreated controls. Cultures were incubated at 37° C.+5% CO2 until >80% CPE is observed. After cytopathic effect (CPE) is observed microscopically, 0.011% neutral red dye was added for approximately 2 hours. The neutral red dye was removed and wells were rinsed once with PBS to remove residual, unincorporated dye. A 50:50 Sorensen citrate buffer/ethanol solution was added and incubated at room temperature for >30 minutes with agitation, followed by measurement of neutral red dye using a spectrophotometer at 540 nm. The resulting optical density measurement was converted to percent signal of the infected, untreated cell control normalizing to virus controls. EC50 and CC50 values were determined by linear regression analysis.

[2] = tested on: CAN97-83-GFP1 (A2a) hMPV in H1-HeLa cells; test: hMPV H1-Hela EC50, anti-nucleoprotein ELISA (Example X); conditions: human metapneumovirus, 96 h, read-out: hMPV H1-Hela EC50 (nM) (per Ex. X)
Experimental: The human metapneumoavirus (hMPV) anti-viral assay is an anti-nucleoprotein ELISA performed in infected H1-HeLa cells. H1-HeLa cells were maintained in Dulbecco's Modified Eagle's Medium with high glucose (Gibco, Cat #: 11995073) supplemented with 10% FBS (HyClone, Cat #: SH303396.03), 100 units/mL penicillin and 100 μg/mL streptomycin (Gibco, Cat #: 15140122). One day before infection, H1-HeLa cells were seeded into 96-well plates (Corning, Cat. #: 3903) at 0.1 mL/well at 1.5×10^5 cells/mL in Opti-MEM (Gibco, Cat #: 31985070) supplemented with 2% FBS, and were incubated at 37° C. in a 100% humid atmosphere containing 5% (v/v) CO2 overnight. On the next day, CAN97-83-GFP1 (A2a) hMPV was diluted in Opti-MEM medium containing 200 μg/mL CaCl2) and 2 μg/mL TPCK treated trypsin and distributed to the 96-well plates at 0.1 mL/well for an MOI=0.1. Test compounds were distributed to each well using a HP D300e digital dispenser with a final volume of 200 µL/well. After the plates were centrifuged at 700 g for one hour at room temperature, they were maintained in a humidified chamber at 37-C with 5% (v/v) CO2 for 96 hours. After the incubation, the medium was removed, and the plates were fixed with 0.1 mL/well 1% formaldehyde for 15 min at room temperature. The fixative was removed, the plates were air dried for 30-60 minutes, and then permeabilized with 0.1 mL/well 0.5% Triton X-100 in PBS for five minutes at room temperature. Following permeabilization, the plates were washed once with 0.1 mL/well blocking buffer consisting of 10% FBS (HyClone, Cat #: SH303396.03), 5% dry milk (AmericanBio, Cat #: AB10109-01000), and 0.1% Tween 20 (EMD Millipore, Cat #655204) in PBS. The plates were blocked with 0.1 mL/well blocking buffer for 60 minutes at 37° C. afterward. The blocking buffer was removed and 0.05 mL/well human metapneumovirus nucleocapsid antibody (Sigma, Cat #MAB80121) diluted 1:500 in Blocking buffer was added and incubated for two hours at 37-C. The plates were then washed with 0.2 mL/well 0.1% Tween 20/PBS five times, followed by addition of 0.05 mL/well of horseradish peroxidase (HRP) conjugated goat anti-mouse IgG antibody (Fisher Scientific, Cat #501077607) at 1:2000 dilution in the blocking buffer. After one-hour incubation at 37-C, plates were washed five times with 0.2 mL/well 0.1% tween 20 in PBS. The HRP signals were developed by adding 0.1 mL/well of TMB reagent (Thermo Scientific, Cat #: ENN301) and incubating at room until the positive control was apparent. At that point, the reaction was stopped by adding 0.1 mL/well TMB stop solution (SeraCare, Cat #: 5150-0021). The absorbance was measured at 450 nm with an EnVision plate reader. The relative absorbance was calculated by normalizing the absorbance of the compound-treated groups to that of the DMSO-treated groups (set as 100%). EC50 values were calculated using a nonlinear four parameter variable slope regression model.

[3] = in vitro; conditions: human; remark: listed apart in the source
Experimental: H1-HeLa cell viability was measured using the CellTiter-Glo® Luminescent Cell Viability Assay kit (Promega, Cat #G7573) according to the manufacturer's protocol. H1-HeLa cells were maintained in Dulbecco's Modified Eagle's Medium with high glucose (Gibco, Cat #: 11995073) supplemented with 10% FBS (HyClone, Cat #: SH303396.03), 100 units/mL penicillin and 100 µg/mL streptomycin (Gibco, Cat #: 15140122). One day before compound treatment, H1-HeLa cells were seeded at […] into 96-well plates (Corning, Cat #3904) in Opti-MEM (Gibco, Cat #: 31985070) supplemented with 2% FBS, and were incubated at 37° C. in a 100% humid atmosphere containing 5% (v/v) CO2. After overnight incubation, the cells were treated with three-fold serial dilutions of the compound. At 96 hours post treatment, CellTiter-Glo reagents were added into each well and luminescence signals were recorded by an EnVision plate reader. The relative cell viability was calculated by normalizing the absorbance of the compound-treated groups to that of the DMSO-treated groups (set as 100% viability) and 10 μM puromycin treated groups (set as 0% viability). The CC50 (compound concentration for reducing 50% of cell viability) was calculated using a nonlinear regression model (four parameters).

Row | Compound | CC50 [1] | EC50 [2] | CC50 at 96 h [3]
1 | CCCCCCCCCCCCCCCCCCCC[C@@H](COP(=O)(O)OC[C@@]1(C#N)O[C@@H](c2ccc3c(N)ncnn23)[C@H](O)[C@@H]1O)OCc1cc(F)cc(C#N)c1 [Compound 70, ((2R,3S,4R)-5-(4-aminopyrrolo[2,1-f][1,2,4]triazin-7-yl)-2-cyano-3,4-dihydroxytetrahydrofuran-2-yl)methyl ((S)-2-((3-cyano-5-fluorobenzyl)oxy)docosyl) hydrogen phosphate] | 12 µM | – | –
2 | CCCCCCCCCCCCCCC[C@H](COP(=O)(O)OC[C@@]1(C#N)O[C@@H](c2ccc3c(N)ncnn23)[C@H](O)[C@@H]1O)OCc1cc(F)cc(C#N)c1 [Compound 80, ((2R,3S,4R,5S)-5-(4-aminopyrrolo[2,1-f][1,2,4]triazin-7-yl)-2-cyano-3,4-dihydroxytetrahydrofuran-2-yl)methyl ((R)-2-((3-cyano-5-fluorobenzyl)oxy)heptadecyl) hydrogen phosphate] | – | 668 nM | 7.08 µM
3 | CCCCCCCCCCCCCCCCCC[C@@H](COP(=O)(O)OC[C@@]1(C#N)O[C@@H](c2ccc3c(N)ncnn23)[C@H](O)[C@@H]1O)OCc1cc(F)cc(C#N)c1 [Compound 37, ((2R,3S,4R)-5-(4-aminopyrrolo[2,1-f][1,2,4]triazin-7-yl)-2-cyano-3,4-dihydroxytetrahydrofuran-2-yl)methyl ((S)-2-((3-cyano-5-fluorobenzyl)oxy)icosyl) hydrogen phosphate] | 16 µM | – | –
4 | CCCCCCCCCCCCCCCCCC[C@H](COP(=O)(O)OC[C@@]1(C#N)O[C@@H](c2ccc3c(N)ncnn23)[C@H](O)[C@@H]1O)OCc1cc(F)cc(C#N)c1 [Compound 84, ((2R,3S,4R,5S)-5-(4-aminopyrrolo[2,1-f][1,2,4]triazin-7-yl)-2-cyano-3,4-dihydroxytetrahydrofuran-2-yl)methyl ((R)-2-((3-cyano-5-fluorobenzyl)oxy)icosyl) hydrogen phosphate] | – | 367 nM | 1.82 µM
5 | CCCCCCCCCCCCCCCCC[C@@H](COP(=O)(O)OC[C@@]1(C#N)O[C@@H](c2ccc3c(N)ncnn23)[C@H](O)[C@@H]1O)OCc1cc(F)cc(C#N)c1 [Compound 74, ((2R,3S,4R)-5-(4-aminopyrrolo[2,1-f][1,2,4]triazin-7-yl)-2-cyano-3,4-dihydroxytetrahydrofuran-2-yl)methyl ((S)-2-((3-cyano-5-fluorobenzyl)oxy)nonadecyl) hydrogen phosphate] | 15 µM | – | –
6 | CCCCCCCCCCCCCCCCCCC[C@H](COP(=O)(O)OC[C@@]1(C#N)O[C@@H](c2ccc3c(N)ncnn23)[C@H](O)[C@@H]1O)Oc1cc(OC)c(C#N)c(OC)c1 [Compound 39, ((2R,3S,4R,5S)-5-(4-aminopyrrolo[2,1-f][1,2,4]triazin-7-yl)-2-cyano-3,4-dihydroxytetrahydrofuran-2-yl)methyl ((R)-2-(4-cyano-3,5-dimethoxyphenoxy)henicosyl) hydrogen phosphate] | 14 µM | – | –
7 | CCCCCCCCCCCCCCCCCCOC[C@H](COP(=O)(O)OC[C@@]1(C#N)O[C@@H](c2ccc3c(N)ncnn23)[C@H](O)[C@@H]1O)OCc1ccc(C#N)cc1OC [Compound 73, ((2R,3S,4R)-5-(4-aminopyrrolo[2,1-f][1,2,4]triazin-7-yl)-2-cyano-3,4-dihydroxytetrahydrofuran-2-yl)methyl ((R)-2-((4-cyano-2-methoxybenzyl)oxy)-3-(octadecyloxy)propyl) hydrogen phosphate] | 19 µM | – | –
8 | CCCCCCCCCCCCCCCCCCOC[C@H](COP(=O)(O)OC[C@@]1(C#N)O[C@@H](c2ccc3c(N)ncnn23)[C@H](O)[C@@H]1O)OCc1ccc(C#N)c(-n2cncn2)c1 [Compound 16, ((2R,3S,4R,5S)-5-(4-aminopyrrolo[2,1-f][1,2,4]triazin-7-yl)-2-cyano-3,4-dihydroxytetrahydrofuran-2-yl)methyl ((R)-2-((4-cyano-3-(1H-1,2,4-triazol-1-yl)benzyl)oxy)-3-(octadecyloxy)propyl) hydrogen phosphate] | 24 µM | – | –
9 | CCCCCCCCCCCCCCCCCCCC[C@H](COP(=O)(O)OC[C@@]1(C#N)O[C@@H](c2ccc3c(N)ncnn23)[C@H](O)[C@@H]1O)Oc1cccc(C#N)c1 [Compound 51, ((2R,3S,4R,5S)-5-(4-aminopyrrolo[2,1-f][1,2,4]triazin-7-yl)-2-cyano-3,4-dihydroxytetrahydrofuran-2-yl)methyl ((R)-2-(3-cyanophenoxy)docosyl) hydrogen phosphate] | 21 µM | – | –
10 | CCCCCCCCCCCCCCOC[C@H](COP(=O)(O)OC[C@@]1(C#N)O[C@@H](c2ccc3c(N)ncnn23)[C@H](O)[C@@H]1O)OCc1ccc(C#N)cc1F [Compound 75, ((2R,3S,4R,5S)-5-(4-aminopyrrolo[2,1-f][1,2,4]triazin-7-yl)-2-cyano-3,4-dihydroxytetrahydrofuran-2-yl)methyl ((R)-2-((4-cyano-2-fluorobenzyl)oxy)-3-(tetradecyloxy)propyl) hydrogen phosphate] | > 50 µM | – | –
11 | CCCCCCCCCCCCCCCCCCOC[C@H](COP(=O)(O)OC[C@@]1(C#N)O[C@@H](c2ccc3c(N)ncnn23)[C@H](O)[C@@H]1O)OCc1ccc(C#N)nc1 [Compound 19, ((2R,3S,4R,5S)-5-(4-aminopyrrolo[2,1-f][1,2,4]triazin-7-yl)-2-cyano-3,4-dihydroxytetrahydrofuran-2-yl)methyl ((R)-2-((6-cyanopyridin-3-yl)methoxy)-3-(octadecyloxy)propyl) hydrogen phosphate] | 25 µM | – | –
12 | CCCCCCCCCCCCCCCCCOC[C@H](COP(=O)(O)OC[C@@]1(C#N)O[C@@H](c2ccc3c(N)ncnn23)[C@H](O)[C@@H]1O)OCc1cc(F)cc(C#N)c1 [Compound 53, ((2R,3S,4R,5S)-5-(4-aminopyrrolo[2,1-f][1,2,4]triazin-7-yl)-2-cyano-3,4-dihydroxytetrahydrofuran-2-yl)methyl ((R)-2-((3-cyano-5-fluorobenzyl)oxy)-3-(heptadecyloxy)propyl) hydrogen phosphate] | 16 µM | – | –
